Test results taken from ChEMBL document CHEMBL1158147, “Ultraviolet-mediated cytotoxic activity of phenylheptatriyne from Bidens pilosa L” (J Nat Prod, 1979).
Calls of active or inactive are those of the source. The calls are words filed in the database; no cut-off is given here.

How the values were obtained:
[1] = test system: Sporobolomyces; assay: Phototoxicity against Sporobolomyces sp. Y138 at 5 ug/disk in dark; type: functional, organism-based
[2] = test system: Paraphyton cookei; assay: Phototoxicity against Microsporum cookei at 5 ug/disk in presence of cool-white fluorescent light; type: functional, organism-based
[3] = Effect on human skin fibroblast cells assessed as viable cell count at 10 ug/ml in petroleum ether after 10.67 Joules/cm UV irradiation for 120 mins by trypan blue exclusion method; type: ADME, cell-based; settings: read-out: Activity
[4] = test system: Trichophyton mentagrophytes; assay: Phototoxicity against Trichophyton mentagrophytes at 5 ug/disk in dark; type: functional, organism-based
[5] = test system: Trichophyton mentagrophytes; assay: Phototoxicity against Trichophyton mentagrophytes at 5 ug/disk in presence of cool-white fluorescent light; type: functional, organism-based
[6] = test system: Saccharomyces cerevisiae; assay: Phototoxicity against Saccharomyces cerevisiae at 2.5 ug/disk after UV irradiation for 180 mins; type: functional, organism-based
[7] = test system: Saccharomyces cerevisiae; assay: Effect on Saccharomyces cerevisiae assessed as viable cell count at 10 ug/ml in petroleum ether after 2.67 Joules/cm'2 UV irradiation for 30 mins; type: functional
[8] = test system: Nannizzia gypsea; assay: Phototoxicity against Microsporum gypseum at 5 ug/disk in presence of long wave UV light; type: functional, organism-based
[9] = test system: Kocuria rosea; assay: Phototoxicity against Micrococcus roseus UBC 289 at 5 ug/disk in presence of long wave UV light; type: functional, organism-based
[10] = test system: Saccharomyces cerevisiae; assay: Phototoxicity against Saccharomyces cerevisiae at 5 ug/disk in presence of long wave UV light; type: functional, organism-based
[11] = test system: Bacillus subtilis; assay: Phototoxicity against Bacillus subtilis at 5 ug/disk in presence of cool-white fluorescent light; type: functional, organism-based
[12] = test system: DNA; assay: Photochemical activity against denatured calf thymus DNA at 10 ug after UV irradiation with 5.33 Joules/cm'2 for 60 mins by hyperchromicity test; type: nucleic-acid assay; settings: Bos taurus
[13] = test system: Paraphyton cookei; assay: Phototoxicity against Microsporum cookei at 5 ug/disk in presence of long wave UV light; type: functional, organism-based
[14] = test system: Kocuria rosea; assay: Phototoxicity against Micrococcus roseus UBC 289 at 5 ug/disk in dark; type: functional, organism-based
[15] = test system: Kocuria rosea; assay: Phototoxicity against Micrococcus roseus UBC 289 at 5 ug/disk in presence of cool-white fluorescent light; type: functional, organism-based
[16] = test system: Candida albicans; assay: Phototoxicity against Candida albicans at 5 ug/disk in presence of cool-white fluorescent light; type: functional, organism-based
[17] = Effect on human skin fibroblast cells assessed as viable cell count at 10 ug/ml in petroleum ether after 1.78 Joules/cm UV irradiation for 20 mins by trypan blue exclusion method; type: ADME, cell-based; settings: read-out: Activity
[18] = test system: Fusarium sp.; assay: Phototoxicity against Fusarium sp. at 5 ug/disk in dark; type: functional, organism-based
[19] = test system: Staphylococcus epidermidis; assay: Phototoxicity against Staphylococcus albus at 5 ug/disk in dark; type: functional, organism-based
[20] = Effect on human skin fibroblast cells assessed as viable cell count at 10 ug/ml in petroleum ether in dark after 60 mins by trypan blue exclusion method; type: ADME, cell-based; settings: read-out: Activity
[21] = test system: Pseudomonas fluorescens; assay: Phototoxicity against Pseudomonas fluorescens at 5 ug/disk in presence of cool-white fluorescent light; type: functional, organism-based
[22] = test system: DNA; assay: Photochemical activity against denatured calf thymus DNA 10 ug after UV irradiation with 2.67 Joules/cm'2 for 30 mins at by hyperchromicity test; type: nucleic-acid assay; settings: Bos taurus
[23] = test system: Escherichia coli; assay: Phototoxicity against Escherichia coli at 5 ug/disk in presence of cool-white fluorescent light; type: functional, organism-based
[24] = test system: Saccharomyces cerevisiae; assay: Phototoxicity against Saccharomyces cerevisiae at 2.5 ug/disk after UV irradiation for 15 mins; type: functional; settings: light or radiation study, 0.25 h, read-out: IZ
[25] = test system: Escherichia coli; assay: Phototoxicity against Escherichia coli at 5 ug/disk in dark; type: functional, organism-based
[26] = test system: Pseudomonas fluorescens; assay: Phototoxicity against Pseudomonas fluorescens at 5 ug/disk in dark; type: functional, organism-based
[27] = test system: Saccharomyces cerevisiae; assay: Effect on Saccharomyces cerevisiae assessed as viable cell count at 10 ug/ml in petroleum ether in dark after 180 mins; type: functional
[28] = test system: Saccharomyces cerevisiae; assay: Effect on Saccharomyces cerevisiae assessed as viable cell count at 10 ug/ml in petroleum ether in dark after 30 mins; type: functional
[29] = test system: Saccharomyces cerevisiae; assay: Phototoxicity against Saccharomyces cerevisiae at 5 ug/disk in dark; type: functional, organism-based
[30] = test system: Saccharomyces cerevisiae; assay: Effect on Saccharomyces cerevisiae assessed as viable cell count at 10 ug/ml in petroleum ether after 5.33 Joules/cm'2 UV irradiation for 60 mins; type: functional
[31] = test system: Saccharomyces cerevisiae; assay: Effect on Saccharomyces cerevisiae assessed as viable cell count at 10 ug/ml in petroleum ether in dark after 60 mins; type: functional
[32] = test system: Enterococcus faecalis; assay: Phototoxicity against Streptococcus faecalis at 5 ug/disk in presence of long wave UV light; type: functional, organism-based
[33] = test system: Microsporum canis; assay: Phototoxicity against Microsporum canis at 5 ug/disk in dark; type: functional, organism-based
[34] = test system: DNA; assay: Photochemical activity against denatured calf thymus DNA at 10 ug after UV irradiation with 16.00 Joules/cm'2 for 180 mins by hyperchromicity test; type: nucleic-acid assay; settings: Bos taurus
[35] = test system: Torula; assay: Phototoxicity against Torula sp. at 5 ug/disk in dark; type: functional, organism-based
[36] = test system: Nannizzia gypsea; assay: Phototoxicity against Microsporum gypseum at 5 ug/disk in presence of cool-white fluorescent light; type: functional, organism-based
[37] = test system: Bacillus subtilis; assay: Phototoxicity against Bacillus subtilis at 5 ug/disk in dark; type: functional, organism-based
[38] = test system: DNA; assay: Photochemical activity against denatured calf thymus DNA at in dark after 180 mins by hyperchromicity test; type: nucleic-acid assay; settings: Bos taurus
[39] = test system: Sporobolomyces; assay: Phototoxicity against Sporobolomyces sp. Y138 at 5 ug/disk in presence of cool-white fluorescent light; type: functional, organism-based
[40] = test system: Saccharomyces cerevisiae; assay: Phototoxicity against Saccharomyces cerevisiae at 2.5 ug/disk after UV irradiation for 30 mins; type: functional, organism-based
[41] = test system: DNA; assay: Photochemical activity against denatured calf thymus DNA at 10 ug in dark by hyperchromicity test; type: nucleic-acid assay; settings: Bos taurus; further: unit not given here
[42] = test system: Candida albicans; assay: Phototoxicity against Candida albicans at 5 ug/disk in presence of long wave UV light; type: functional, organism-based
[43] = test system: Trichophyton mentagrophytes; assay: Phototoxicity against Trichophyton mentagrophytes at 5 ug/disk in presence of long wave UV light; type: functional, organism-based
[44] = test system: Rhodotorula mucilaginosa; assay: Phototoxicity against Rhodotorula rubra Y96 at 5 ug/disk in dark; type: functional, organism-based
[45] = test system: Rhodotorula mucilaginosa; assay: Phototoxicity against Rhodotorula rubra Y96 at 5 ug/disk in presence of long wave UV light; type: functional, organism-based
[46] = test system: Bacillus subtilis; assay: Phototoxicity against Bacillus subtilis at 5 ug/disk in presence of long wave UV light; type: functional, organism-based
[47] = test system: Fusarium sp.; assay: Phototoxicity against Fusarium sp. at 5 ug/disk in presence of cool-white fluorescent light; type: functional, organism-based
[48] = test system: Microsporum canis; assay: Phototoxicity against Microsporum canis at 5 ug/disk in presence of long wave UV light; type: functional, organism-based
[49] = test system: DNA; assay: Photochemical activity against denatured calf thymus DNA at 10 ug in dark after 60 mins by hyperchromicity test; type: nucleic-acid assay; settings: Bos taurus; further: unit not given here
[50] = test system: DNA; assay: Photochemical activity against denatured calf thymus DNA at 10 ug after UV irradiation with 10.67 Joules/cm'2 for 120 mins by hyperchromicity test; type: nucleic-acid assay; settings: Bos taurus; further: unit not given here
[51] = test system: Pseudomonas fluorescens; assay: Phototoxicity against Pseudomonas fluorescens at 5 ug/disk in presence of long wave UV light; type: functional, organism-based
[52] = test system: Candida albicans; assay: Phototoxicity against Candida albicans at 2.5 ug/disk after UV irradiation for 30 mins; type: functional, organism-based
[53] = test system: DNA; assay: Photochemical activity against denatured calf thymus DNA at in dark after 120 mins by hyperchromicity test; type: nucleic-acid assay; settings: Bos taurus; further: unit not given here
[54] = test system: Saccharomyces cerevisiae; assay: Phototoxicity against Saccharomyces cerevisiae at 5 ug/disk in presence of cool-white fluorescent light; type: functional, organism-based
[55] = test system: Torula; assay: Phototoxicity against Torula sp. at 5 ug/disk in presence of long wave UV light; type: functional, organism-based
[56] = test system: Staphylococcus epidermidis; assay: Phototoxicity against Staphylococcus albus at 5 ug/disk in presence of cool-white fluorescent light; type: functional, organism-based

## CC#CC#CC#Cc1ccccc1 [PHENYLHEPTATRIYNE]
[1]
  Activity: inactive
[2]
  Activity: Active
[3]
  viability at 2 h, 10 ug/ml: 0%
[4]
  Activity: inactive
[5]
  Activity: Active
[6]
  Activity: inactive
[7]
  Activity: 0.02
[8]
  Activity: Active
[9]
  Activity: Active
[10]
  Activity: Active
[11]
  Activity: Active
[12]
  Activity: 0.02
[13]
  Activity: Active
[14]
  Activity: inactive
[15]
  Activity: Active
[16]
  Activity: Active
[17]
  viability at 20 min, 10 ug/ml: 95%
[18]
  Activity: inactive
[19]
  Activity: inactive
[20]
  viability at 1 h, 10 ug/ml: 100%
[21]
  Activity: inactive
[22]
  Activity: 0.03
[23]
  Activity: inactive
[24]
  zone of inhibition at 2.5 µg/disc: 10 mm
[25]
  Activity: inactive
[26]
  Activity: inactive
[27]
  Activity: 53.5
[28]
  Activity: 35.8
[29]
  Activity: inactive
[30]
  Activity: 0
[31]
  Activity: 48.3
[32]
  Activity: Active
[33]
  Activity: inactive
[34]
  Activity: 0
[35]
  Activity: inactive
[36]
  Activity: Active
[37]
  Activity: inactive
[38]
  Activity: 0.18
[39]
  Activity: Active
[40]
  Activity: inactive
[41]
  Activity: 0.17
[42]
  Activity: Active
[43]
  Activity: Active
[44]
  Activity: inactive
[45]
  Activity: Active
[46]
  Activity: Active
[47]
  Activity: Active
[48]
  Activity: Active
[49]
  Activity: 0.18
[50]
  Activity: 0.01
[51]
  Activity: inactive
[52]
  Activity: inactive
[53]
  Activity: 0.19
[54]
  Activity: Active
[55]
  Activity: Active
[56]
  Activity: Active
